Measured values: patent publication US20070043024A1, “Azacyclic compounds as inhibitors of sensory neurone specific channels” (priority 2003, published 2007)

Molecular target: T1, human Nav1.8 (hNav1.8) ion channel (Homo sapiens, UniProt Q9Y5Y9)
T1 construct: expressed in transfected cells
Test: Inhibition of human Nav1.8 stably expressed in SH-SY-5Y cells (membrane potential dye fluorescence assay)
Format: cell-based
Conditions: Table 2 (compound numbers of the list in the description); SH-SY-5Y hNav1.8 cells, inhibition of membrane depolarisation, FLIPR membrane potential dye, 250 nM TTX, test concentration range 100 μM-0.05 μM; read-out: IC50
Method: Inhibition of Human Nav1.8 Stably Expressed in SH-SY-5Y Cells
A SH-SY-5Y neuroblastoma cell line stably expressing the human […] (hNav1.8) ion channel was constructed. This cell line has been used to develop a medium to high throughput assay for determining the ability of test compounds to inhibit membrane depolarisation mediated via the hNav1.8 channel.
SH-SY-5Y hNav1.8 are grown in adherent monolayer culture using 50:50 Ham's F-12/EMEM tissue culture medium supplemented with 15% (v/v) foetal bovine serum; 2 mM L-glutamine, 1% NEAA and 600 μg·ml^−1 Geneticin sulphate. Cells are removed from the tissue culture flask using trypsin/EDTA and re-plated into black walled, clear bottom 96-well assay plates at 50,000 cells·well^−1 24 hours prior to assay.
On the day of assay the cell assay plates are washed to remove cell culture medium using a sodium free assay buffer (145 mM tetramethyl ammonium chloride; 2 mM calcium chloride; 0.8 mM magnesium chloride hexahydrate; 10 mM HEPES; 10 mM glucose; 5 mM potassium chloride, pH 7.4). Fluorescent membrane potential dye solution (FLIPR™ membrane potential dye, Molecular Devices Corporation), containing 10 μM of a pyrethroid to prevent channel inactivation and 250 nM tetrodotoxin (TTX) to reduce interference from TTX-sensitive sodium channels present in the cell line. Test compound, initially dissolved in dimethyl sulfoxide but further diluted in sodium free buffer, is added to achieve the final test concentration range of 100 μM-0.05 μM.
Cell plates are incubated for 30 minutes at room temperature to allow equilibration of dye and test compound. Plates are then transferred to a fluorescence plate reader for fluorescence measurement using an excitation wavelength of 530 nm whilst measuring fluorescence emission at 565 nm. Baseline fluorescence levels are first determined before the addition of a sodium containing buffer (220 mM sodium chloride; 2 mM calcium chloride; 0.8 mM magnesium chloride hexahydrate; […]; 10 mM glucose; 5 mM potassium chloride. pH 7.4) to cause membrane depolarisation in those cells where channel block has not been effected (final sodium concentration=72.5 mM). Membrane depolarisation is registered by an increase in fluorescence emission at 565 nm.
The change in fluorescence seen in each test well upon the addition of sodium containing buffer is calculated relative to the baseline fluorescence for that well. This figure is then used for calculating the IC50 for each test compound.

T1 sequence (Q9Y5Y9 whole entry): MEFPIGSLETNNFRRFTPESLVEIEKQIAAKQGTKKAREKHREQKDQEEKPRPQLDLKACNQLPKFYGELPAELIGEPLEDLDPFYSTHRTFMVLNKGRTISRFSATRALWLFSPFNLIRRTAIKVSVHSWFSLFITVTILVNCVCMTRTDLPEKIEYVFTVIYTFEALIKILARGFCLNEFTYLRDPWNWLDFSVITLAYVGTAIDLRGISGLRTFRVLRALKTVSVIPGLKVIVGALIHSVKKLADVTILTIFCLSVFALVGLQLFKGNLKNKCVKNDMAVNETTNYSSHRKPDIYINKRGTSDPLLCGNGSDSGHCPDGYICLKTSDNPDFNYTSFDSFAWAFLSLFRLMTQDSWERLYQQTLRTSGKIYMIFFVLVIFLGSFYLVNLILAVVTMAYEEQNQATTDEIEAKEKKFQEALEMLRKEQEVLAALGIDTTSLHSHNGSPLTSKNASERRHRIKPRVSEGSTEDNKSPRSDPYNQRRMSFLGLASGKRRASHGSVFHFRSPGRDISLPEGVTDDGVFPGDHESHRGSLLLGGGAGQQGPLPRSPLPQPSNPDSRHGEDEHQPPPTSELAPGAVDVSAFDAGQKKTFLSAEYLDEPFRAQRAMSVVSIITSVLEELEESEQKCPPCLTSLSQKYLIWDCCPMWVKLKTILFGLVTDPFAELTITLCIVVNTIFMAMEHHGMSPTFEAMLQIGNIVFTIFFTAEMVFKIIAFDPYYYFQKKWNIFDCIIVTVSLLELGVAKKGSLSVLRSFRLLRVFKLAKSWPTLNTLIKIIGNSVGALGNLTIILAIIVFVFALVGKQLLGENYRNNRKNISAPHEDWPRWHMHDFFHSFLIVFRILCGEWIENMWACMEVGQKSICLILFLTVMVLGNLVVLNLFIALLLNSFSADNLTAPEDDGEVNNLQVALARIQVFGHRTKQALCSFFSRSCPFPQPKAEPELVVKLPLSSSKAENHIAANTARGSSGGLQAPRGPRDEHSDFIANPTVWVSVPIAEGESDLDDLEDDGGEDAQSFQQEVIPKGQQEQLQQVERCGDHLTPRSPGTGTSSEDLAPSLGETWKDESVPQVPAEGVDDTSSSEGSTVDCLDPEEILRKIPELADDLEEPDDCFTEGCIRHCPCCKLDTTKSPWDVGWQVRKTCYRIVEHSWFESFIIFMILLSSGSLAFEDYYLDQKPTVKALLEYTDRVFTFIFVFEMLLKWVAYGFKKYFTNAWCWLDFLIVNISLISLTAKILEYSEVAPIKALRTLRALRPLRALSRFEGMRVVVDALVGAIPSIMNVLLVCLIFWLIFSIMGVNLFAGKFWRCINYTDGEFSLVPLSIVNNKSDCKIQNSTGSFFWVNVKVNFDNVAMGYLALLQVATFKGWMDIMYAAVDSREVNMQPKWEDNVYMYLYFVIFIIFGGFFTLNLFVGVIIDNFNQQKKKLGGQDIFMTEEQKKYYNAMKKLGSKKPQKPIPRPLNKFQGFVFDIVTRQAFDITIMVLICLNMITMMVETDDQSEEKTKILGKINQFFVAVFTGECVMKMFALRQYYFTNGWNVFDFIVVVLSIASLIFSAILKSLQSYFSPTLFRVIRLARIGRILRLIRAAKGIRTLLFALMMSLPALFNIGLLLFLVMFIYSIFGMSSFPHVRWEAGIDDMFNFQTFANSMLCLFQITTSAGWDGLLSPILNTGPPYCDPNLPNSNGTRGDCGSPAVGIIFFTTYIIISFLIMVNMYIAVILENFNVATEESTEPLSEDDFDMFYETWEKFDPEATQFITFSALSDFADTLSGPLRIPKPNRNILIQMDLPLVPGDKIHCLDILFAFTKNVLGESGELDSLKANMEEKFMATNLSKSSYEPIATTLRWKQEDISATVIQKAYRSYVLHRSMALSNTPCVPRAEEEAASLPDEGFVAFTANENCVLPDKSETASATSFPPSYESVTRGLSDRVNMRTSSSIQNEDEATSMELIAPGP

Going from CC(=O)Nc1ccc(C(CCNC(=O)CN2CCc3ccccc3C2)c2ccccc2)cc1NC(C)=O (centres unmarked) [Compound 116, N-[3-(3,4-Bis-acetylamino-phenyl)-3-phenyl-propyl]-2-(3,4-dihydro-1H-isoquinolin-2-yl)-acetamide] to CS(=O)(=O)Nc1cccc2c1CN(CC(=O)NCCCC(c1ccccc1)c1ccccc1)CC2 [Compound 117, N-(4,4-Diphenyl-butyl)-2-(8-methanesulfonylamino-3,4-dihydro-1H-isoquinolin-2-yl)-acetamide], the IC50 falls from 22200 nM to 1360 nM (16-fold). The second is the more potent here.

Compared with O=C(CN1Cc2ccccc2C1)NC(c1ccc(F)cc1)c1ccc(F)cc1 [Compound 118, N-[Bis-(4-fluoro-phenyl)-methyl]-2-(1,3-dihydro-isoindol-2-yl)-acetamide], O=C(CN1CCc2ccccc2C1)NC(c1ccc(F)cc1)c1ccc(F)cc1 [Compound 119, N-[Bis-(4-fluoro-phenyl)-methyl]-2-(3,4-dihydro-1H-isoquinolin-2-yl)-acetamide] is 5.3-fold lower in IC50: 10200 nM for the first, 1910 nM for the second.

COc1cccc2c1CN(CC(=O)NC(c1ccc(F)cc1)c1ccc(F)cc1)CC2 [Compound 120, N-[Bis-(4-fluoro-phenyl)-methyl]-2-(8-methoxy-3,4-dihydro-1H-isoquinolin-2-yl)-acetamide] and COc1cc2c(cc1OC)CN(CC(=O)NC(c1ccc(F)cc1)c1ccc(F)cc1)CC2 [Compound 121, N-[Bis-(4-fluoro-phenyl)-methyl]-2-(6,7-dimethoxy-3,4-dihydro-1H-isoquinolin-2-yl)-acetamide] are within 1.5-fold of each other in IC50: 3340 nM for the first, 3450 nM for the second.

Nc1cccc2c1CCN(CCC(=O)NCCC(c1ccccc1)c1ccccc1)C2 [Compound 122, 3-(5-Amino-3,4-dihydro-1H-isoquinolin-2-yl)-N-(3,3-diphenyl-propyl)-propionamide] and Nc1cccc2c1CN(CCC(=O)NCCC(c1ccccc1)c1ccccc1)CC2 [Compound 127, 3-(8-Amino-3,4-dihydro-1H-isoquinolin-2-yl)-N-(3,3-diphenyl-propyl)-propionamide] are within 1.5-fold of each other in IC50: 960 nM for the first, 650 nM for the second.

Nc1cccc2c1CCN(CC(=O)NCC(c1ccccc1)c1ccccc1)C2 [Compound 123, 2-(5-Amino-3,4-dihydro-1H-isoquinolin-2-yl)-N-(2,2-diphenyl-ethyl)-acetamide] and COc1cc2c(cc1OC)CN(CC(=O)NCC(c1ccccc1)c1ccccc1)CC2 [Compound 126, 2-(6,7-Dimethoxy-3,4-dihydro-1H-isoquinolin-2-yl)-N-(2,2-diphenyl-ethyl)-acetamide] are within 1.5-fold of each other in IC50: 2890 nM for the first, 1930 nM for the second.

Going from COc1cc2c(cc1OC)CN(CC(=O)NCCCC(c1ccccc1)c1ccccc1)CC2 [Compound 124, 2-(Dimethoxy-3,4-dihydro-1H-isoquinolin-2-yl)-N-(4,4-diphenyl-butyl)-acetamide] to COc1cc2c(cc1OC)CN(CCC(=O)NCCC(c1ccccc1)c1ccccc1)CC2 [Compound 125, 3-(6,7-Dimethoxy-3,4-dihydro-1H-isoquinolin-2-yl)-N-(3,3-diphenyl-propyl)-propionamide], the IC50 falls from 590 nM to 380 nM (1.6-fold). The second is the more potent here.

COc1cccc2c1CN(CC(=O)NCCCn1c3ccccc3c3ccccc31)CC2 [Compound 128, N-(3-Carbazol-9-yl-propyl)-2-(8-methoxy-3,4-dihydro-1H-isoquinolin-2-yl)-acetamide] and O=C(CN1CCc2cccc(O)c2C1)NCCCn1c2ccccc2c2ccccc21 [Compound 129, N-(3-Carbazol-9-yl-propyl)-2-(8-hydroxy-3,4-dihydro-1H-isoquinolin-2-yl)-acetamide] are within 1.5-fold of each other in IC50: 3510 nM for the first, 2480 nM for the second.

First: Cc1cc2cc(Cl)ccc2n1CCCNC(=O)CN1CCc2cccc(O)c2C1 [Compound 131, N-[3-(5-Chloro-2-methyl-indol-1-yl)-propyl]-2-(8-hydroxy-3,4-dihydro-1H-isoquinolin-2-yl)-acetamide]
Second: O=C(CN1CCc2cccc(O)c2C1)N1c2ccccc2Sc2ccc(Cl)cc21 [Compound 141, 1-(2-Chloro-phenothiazin-10-yl)-2-(8-hydroxy-3,4-dihydro-1H-isoquinolin-2-yl)-ethanone]
The IC50 of the first is 2-fold higher: 3610 nM for the first, 1850 nM for the second. The second is the more potent here.

Going from COc1cccc2c1CN(CCNC(=S)NC(c1ccccc1)c1ccccc1)CC2 [Compound 133, 1-Benzhydryl-3-[2-(8-methoxy-3,4-dihydro-1H-isoquinolin-2-yl)-ethyl]-thiourea] to COc1cccc2c1CN(CCNC(=O)NC(c1ccccc1)c1ccccc1)CC2 [Compound 135, 1-Benzhydryl-3-[2-(8-methoxy-3,4-dihydro-1H-isoquinolin-2-yl)-ethyl]-urea], the IC50 falls from 600 nM to 380 nM (1.6-fold).

Going from COc1cc2c(cc1OC)CN(CCNC(=S)NC(c1ccccc1)c1ccccc1)CC2 [Compound 134, 1-Benzhydryl-3-[2-(6,7-dimethoxy-3,4-dihydro-1H-isoquinolin-2-yl)-ethyl]-thiourea] to COc1cc2c(cc1OC)CN(CCNC(=O)NC(c1ccccc1)c1ccccc1)CC2 [Compound 136, 1-Benzhydryl-3-[2-(6,7-dimethoxy-3,4-dihydro-1H-isoquinolin-2-yl)-ethyl]-urea], the IC50 rises from 770 nM to 2110 nM (2.7-fold). The first is the more potent here.

COc1cccc2c1CN(CCNC(=S)NCC(c1ccccc1)c1ccccc1)CC2 [Compound 137, 1-(2,2-Diphenyl-ethyl)-3-[2-(8-methoxy-3,4-dihydro-1H-isoquinolin-2-yl)-ethyl]-thiourea] and COc1cc2c(cc1OC)CN(CCNC(=S)NCC(c1ccccc1)c1ccccc1)CC2 [Compound 138, 1-[2-(6,7-Dimethoxy-3,4-dihydro-1H-isoquinolin-2-yl)-ethyl]-3-(2,2-diphenyl-ethyl)-thiourea] are within 1.5-fold of each other in IC50: 440 nM for the first, 520 nM for the second.

Going from O=C(CN1CCc2cccc(O)c2C1)N1c2ccccc2Sc2ccccc21 [Compound 139, 2-(8-Hydroxy-3,4-dihydro-1H-isoquinolin-2-yl)-1-phenothiazin-10-yl-ethanone] to COc1cccc2c1CN(CC(=O)N1c3ccccc3Sc3ccccc31)CC2 [Compound 140, 2-(8-Methoxy-3,4-dihydro-1H-isoquinolin-2-yl)-1-phenothiazin-10-yl-ethanone], the IC50 rises from 1250 nM to 2330 nM (1.9-fold).

COc1cccc2c1CN(CC(=O)N1c3ccccc3Sc3ccc(Cl)cc31)CC2 [Compound 142, 1-(2-Chloro-phenothiazin-10-yl)-2-(8-methoxy-3,4-dihydro-1H-isoquinolin-2-yl)-ethanone] and CC(=O)c1ccc2c(c1)N(C(=O)CN1CCc3cccc(O)c3C1)c1ccccc1S2 [Compound 147, 1-(2-Acetyl-phenothiazin-10-yl)-2-(8-hydroxy-3,4-dihydro-1H-isoquinolin-2-yl)-ethanone] are within 1.5-fold of each other in IC50: 2090 nM for the first, 2040 nM for the second.

Going from COc1cccc2c1CN(CC(=O)N1c3ccccc3[S+]([O-])c3ccccc31)CC2 [Compound 143, 2-(8-Methoxy-3,4-dihydro-1H-isoquinolin-2-yl)-1-(5-oxo-5H-5lambda*4*-phenothiazin-10-yl)-ethanone] to O=C(CN1CCc2cccc(O)c2C1)N1c2ccccc2Oc2ccccc21 [Compound 144, 2-(8-Hydroxy-3,4-dihydro-1H-isoquinolin-2-yl)-1-phenoxazin-10-yl-ethanone], the IC50 falls from 9590 nM to 500 nM (19-fold). The second is the more potent here.

Compound O=C(CN1CCc2cccc(O)c2C1)N1c2ccccc2Sc2ccc(C(F)(F)F)cc21 [Compound 145, 2-(8-Hydroxy-3,4-dihydro-1H-isoquinolin-2-yl)-1-(2-trifluoromethyl-phenothiazin-10-yl)-ethanone] has an IC50 of 2630 nM.
